Measurements as given in ChEMBL document CHEMBL6087405, “Discovery and optimization of anthraquinone derivatives containing substituted bisbenzyloxy groups as a novel scaffold damaged endoplasmic reticulum and against hepatocellular carcinoma cells” (Bioorg Med Chem, 2024).
Calls of active or inactive are those of the source. The calls are words filed in the database; no cut-off is given here.

Assays:
Huh-7 [1] = assay: Induction of apoptosis in human Huh-7 cells assessed as late apoptotic cells at 4 uM measured after 48 hrs by Annexin V-PE staining based flow cytometry analysis (reference value: 2.06%); format: functional
Huh-7 [2] = assay: Induction of apoptosis in human Huh-7 cells assessed as viable cells at 4 uM measured after 48 hrs by Annexin V-PE staining based flow cytometry analysis (reference value: 93.69%); format: functional; conditions: read-out: Activity
Huh-7 [3] = assay: Induction of apoptosis in human Huh-7 cells assessed as late apoptotic cells at 8 uM measured after 48 hrs by Annexin V-PE staining based flow cytometry analysis (reference value: 2.06%); format: functional
Huh-7 [4] = assay: Induction of ER stress in human Huh-7 cells assessed as increase in ATF6 protein level at 2 to 4 uM incubated for 48 hrs by Western blot analysis; format: functional, cell-based; conditions: dose 2-4 µM
Huh-7 [5] = assay: Induction of apoptosis in human Huh-7 cells assessed as late apoptotic cells at 8 uM measured after 48 hrs in presence of Z-VAD by Annexin V-PE staining based flow cytometry analysis (reference value: 2.06%); format: functional
[6] = Drug localization in endoplasmic reticulum of human Huh-7 cells assessed as colocalization at 100 uM measured within 1 hr by fluorescence based analysis; format: ADME, subcellular; conditions: huh-7, 1 h
Huh-7 [7] = assay: Induction of apoptosis in human Huh-7 cells assessed as early apoptotic cells at 4 uM measured after 48 hrs by Annexin V-PE staining based flow cytometry analysis (reference value: 0.88%); format: functional
Huh-7 [8] = assay: Induction of apoptosis in human Huh-7 cells assessed as necrotic cells at 2 uM measured after 48 hrs by Annexin V-PE staining based flow cytometry analysis (reference value: 3.37%); format: functional
Huh-7 [9] = assay: Induction of ER stress in human Huh-7 cells assessed as increase in CHOP protein level at 2 to 4 uM incubated for 48 hrs by Western blot analysis; format: functional, cell-based; conditions: dose 2-4 µM
Huh-7 [10] = assay: Induction of apoptosis in human Huh-7 cells assessed as necrotic cells at 4 uM measured after 48 hrs by Annexin V-PE staining based flow cytometry analysis (reference value: 3.37%); format: functional
Huh-7 [11] = assay: Induction of apoptosis in human Huh-7 cells assessed as late apoptotic cells at 2 uM measured after 48 hrs by Annexin V-PE staining based flow cytometry analysis (reference value: 2.06%); format: functional
Huh-7 [12] = assay: Induction of ER stress in human Huh-7 cells assessed as increase in PERK protein level at 2 to 4 uM incubated for 48 hrs by Western blot analysis; format: functional, cell-based; conditions: dose 2-4 µM
Huh-7 [13] = assay: Induction of ER stress in human Huh-7 cells assessed as increase in CHOP protein level at 4 uM incubated for 48 hrs in presence of 4pba by Western blot analysis; format: functional, cell-based
Huh-7 [14] = assay: Upregulation of Caspase 12 expression level in human Huh-7 cells at 2 to 4 uM measured after 48 hrs by Western blot analysis; format: functional, cell-based; conditions: dose 2-4 µM
Huh-7 [15] = assay: Induction of ER stress in human Huh-7 cells assessed as increase in calcium ion content by measuring fluorescence intensity at 4 uM incubated for 24 hrs by fluorescence microscopy based analysis; format: functional, cell-based
Huh-7 [16] = assay: Upregulation of Bax protein level in human Huh-7 cells at 2 to 4 uM by Western blot analysis; format: functional, cell-based; conditions: dose 2-4 µM
Huh-7 [17] = assay: Induction of apoptosis in human Huh-7 cells assessed as viable cells at 2 uM measured after 48 hrs by Annexin V-PE staining based flow cytometry analysis (reference value: 93.69%); format: functional; conditions: read-out: Activity
Huh-7 [18] = assay: Induction of ER stress in human Huh-7 cells assessed as increase in GRP78 protein level at 4 uM incubated for 48 hrs in presence of 4pba by Western blot analysis; format: functional, cell-based
A549 = assay: Antiproliferative activity against human A549 cells measured after 48 hrs by MTT assay; format: functional, cell-based; conditions: A549, 48 h
Huh-7 [19] = assay: Induction of ER stress in human Huh-7 cells assessed as increase in calcium ion content by measuring fluorescence intensity at 4 uM incubated for 24 hrs in presence of […] by fluorescence microscopy based analysis; format: functional, cell-based
Huh-7 [20] = assay: Upregulation of cleaved caspase-3 protein level in human Huh-7 cells at 2 to 4 uM by Western blot analysis; format: functional, cell-based; conditions: dose 2-4 µM
Huh-7 [21] = assay: Induction of apoptosis in human Huh-7 cells assessed as early apoptotic cells at 2 uM measured after 48 hrs by Annexin V-PE staining based flow cytometry analysis (reference value: 0.88%); format: functional
Huh-7 [22] = assay: Induction of mitochondrial ROS release in human Huh-7 cells at 2 uM measured after 24 hrs by fluorescent microscopic analysis; format: functional, cell-based
Huh-7 [23] = assay: Induction of ER stress in human Huh-7 cells assessed as increase in GRP78 protein level at 2 to 4 uM incubated for 48 hrs by Western blot analysis; format: functional, cell-based; conditions: dose 2-4 µM
Huh-7 [24] = assay: Induction of ER stress in human Huh-7 cells assessed as increase in PERK protein level at 4 uM incubated for 48 hrs in presence of 4pba by Western blot analysis; format: functional, cell-based
Huh-7 [25] = assay: Induction of mitochondrial ROS release in human Huh-7 cells at 2 uM measured after 24 hrs in presence of […] by fluorescent microscopic analysis; format: functional, cell-based
Huh-7 [26] = assay: Induction of apoptosis in human Huh-7 cells assessed as viable cells at 8 uM measured after 48 hrs by Annexin V-PE staining based flow cytometry analysis (reference value: 93.69%); format: functional; conditions: read-out: Activity
Huh-7 [27] = assay: Induction of apoptosis in human Huh-7 cells assessed as necrotic cells at 8 uM measured after 48 hrs in presence of Z-VAD by Annexin V-PE staining based flow cytometry analysis (reference value: 3.37%); format: functional
Mitochondrial membrane = assay: Disruption of mitochondrial membrane potential in human Huh-7 cells assessed as appearance of punctate shaped mitochondria at 2 uM measured after 24 hrs by laser scanning confocal microscopic analysis; format: cell membranes
Huh-7 [28] = assay: Upregulation of BAK protein level in human Huh-7 cells at 2 to 4 uM by Western blot analysis; format: functional, cell-based; conditions: dose 2-4 µM
Huh-7 [29] = assay: Induction of morphological change in human Huh-7 cells assessed as membrane wrinkling at 2 to 4 uM measured after 48 hrs by HE staining based microscopic analysis; format: functional, cell-based; conditions: dose 2-4 µM
Huh-7 [30] = assay: Upregulation of Cytochrome C level in human Huh-7 cells at 2 to 4 uM by Western blot analysis; format: functional, cell-based; conditions: dose 2-4 µM
Huh-7 [31] = assay: Induction of ER stress in human Huh-7 cells assessed as increase in IRE1 protein level at 4 uM incubated for 48 hrs in presence of 4pba by Western blot analysis; format: functional, cell-based
Huh-7 [32] = assay: Antiproliferative activity against human Huh-7 cells measured after 48 hrs by MTT assay; format: functional, cell-based; conditions: Huh-7, 48 h
MDA-MB-231 = assay: Antiproliferative activity against human MDA-MB-231 cells measured after 48 hrs by MTT assay; format: functional, cell-based; conditions: MDA-MB-231, 48 h
Huh-7 [33] = assay: Induction of morphological change in human Huh-7 cells assessed as nuclear pyknosis at 2 to 4 uM measured after 48 hrs by HE staining based microscopic analysis; format: functional, cell-based; conditions: dose 2-4 µM
Huh-7 [34] = assay: Induction of apoptosis in human Huh-7 cells assessed as viable cells at 8 uM measured after 48 hrs in presence of Z-VAD by Annexin V-PE staining based flow cytometry analysis (reference value: 93.69%); format: functional; conditions: read-out: Activity
Huh-7 [35] = assay: Induction of morphological change in human Huh-7 cells assessed as nuclear edge aggregation at 2 to 4 uM measured after 48 hrs by HE staining based microscopic analysis; format: functional, cell-based; conditions: dose 2-4 µM

## COc1ccc(COc2cccc3c2C(=O)c2c(OCc4ccc(OC)cc4)cc(C(=O)NCCNCCO)cc2C3=O)cc1
Huh-7 [1]
  Activity: 7.59%
Huh-7 [2]
  viability at 4 µM: 40.2%
Huh-7 [3]
  Activity: 6.32%
Huh-7 [4]
  Activity: Active
Huh-7 [5]
  Activity: 4.41%
[6]
  Drug uptake: Active
Huh-7 [7]
  Activity: 43.64%
Huh-7 [8]
  Activity: 6.06%
Huh-7 [9]
  Activity: Active
Huh-7 [10]
  Activity: 8.55%
Huh-7 [11]
  Activity: 4.4%
Huh-7 [12]
  Activity: Active
Huh-7 [13]
  Activity: inactive
Huh-7 [14]
  Activity: Active
Huh-7 [15]
  Activity: Active
Huh-7 [16]
  Activity: Active
Huh-7 [17]
  viability at 2 µM: 24.1%
Huh-7 [18]
  Activity: inactive
A549
  IC50: 2.58 µM
Huh-7 [19]
  Activity: inactive
Huh-7 [20]
  Activity: Active
Huh-7 [21]
  Activity: 65.4%
Huh-7 [22]
  Activity: Active
Huh-7 [23]
  Activity: Active
Huh-7 [24]
  Activity: inactive
Huh-7 [25]
  Activity: inactive
Huh-7 [26]
  viability at 8 µM: 23.7%
Huh-7 [27]
  Activity: 10.59%
Mitochondrial membrane
  Activity: Active
Huh-7 [28]
  Activity: Active
Huh-7 [29]
  Activity: Active
Huh-7 [30]
  Activity: Active
Huh-7 [31]
  Activity: inactive
Huh-7 [32]
  IC50: 1.75 µM
MDA-MB-231
  IC50: 0.6 µM
Huh-7 [33]
  Activity: Active
Huh-7 [34]
  viability at 8 µM: 68.5%
Huh-7 [35]
  Activity: Active
